Experiments:
OCT1 [1] = conditions: ref Tzvetkov et al, 2018 (fenoterol); Matthaei et al, 2016 (sumatriptan); cited from earlier work
human OCT1 (hOCT1) = target: T1, human OCT1 (hOCT1) (Homo sapiens, UniProt O15245); parameters: expressed in transfected cells; empty vector control pcDNA5; method as in ref column References of Table 2 (Tzvetkov et al, 2018; Morse et al, 2020; Jensen et al, 2020; Meyer et al, 2019, 2022; Wittern et al, 2024 and own unpublished data; Elsby et al, 2017); conditions: literature values; References of Table 2 (Tzvetkov et al, 2018; Morse et al, 2020; Jensen et al, 2020; Meyer et al, 2019, 2022; Wittern et al, 2024 and own unpublished data; Elsby et al, 2017); cited from earlier work
T1 sequence (O15245 1-554): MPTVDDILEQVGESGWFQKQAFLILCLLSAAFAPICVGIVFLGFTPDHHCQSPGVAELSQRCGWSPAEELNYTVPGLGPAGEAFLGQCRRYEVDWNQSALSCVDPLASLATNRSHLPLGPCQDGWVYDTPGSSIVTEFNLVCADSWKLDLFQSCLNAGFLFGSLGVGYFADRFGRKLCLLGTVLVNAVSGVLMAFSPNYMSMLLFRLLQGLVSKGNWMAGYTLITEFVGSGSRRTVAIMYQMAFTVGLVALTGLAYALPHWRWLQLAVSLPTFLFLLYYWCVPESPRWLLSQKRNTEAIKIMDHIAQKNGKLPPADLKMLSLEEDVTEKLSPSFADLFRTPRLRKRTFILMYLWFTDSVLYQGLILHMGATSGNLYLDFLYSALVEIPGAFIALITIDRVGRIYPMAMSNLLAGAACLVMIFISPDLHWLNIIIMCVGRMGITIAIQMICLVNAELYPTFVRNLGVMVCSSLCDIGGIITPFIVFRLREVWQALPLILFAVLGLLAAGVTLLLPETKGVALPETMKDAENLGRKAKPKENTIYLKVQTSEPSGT

[2] = Pharmacokinetic parameters used for estimating the potential for DDIs; type: in vivo, human
Method: Ka was calculated manually based on available pharmacokinetic parameters.

OCT1 [3] = target: T2, OCT1 (Homo sapiens, UniProt O15245); experiment: Uptake of the cocktail by HEK293 cells overexpressing human OCT1
T2 sequence (O15245 1-554): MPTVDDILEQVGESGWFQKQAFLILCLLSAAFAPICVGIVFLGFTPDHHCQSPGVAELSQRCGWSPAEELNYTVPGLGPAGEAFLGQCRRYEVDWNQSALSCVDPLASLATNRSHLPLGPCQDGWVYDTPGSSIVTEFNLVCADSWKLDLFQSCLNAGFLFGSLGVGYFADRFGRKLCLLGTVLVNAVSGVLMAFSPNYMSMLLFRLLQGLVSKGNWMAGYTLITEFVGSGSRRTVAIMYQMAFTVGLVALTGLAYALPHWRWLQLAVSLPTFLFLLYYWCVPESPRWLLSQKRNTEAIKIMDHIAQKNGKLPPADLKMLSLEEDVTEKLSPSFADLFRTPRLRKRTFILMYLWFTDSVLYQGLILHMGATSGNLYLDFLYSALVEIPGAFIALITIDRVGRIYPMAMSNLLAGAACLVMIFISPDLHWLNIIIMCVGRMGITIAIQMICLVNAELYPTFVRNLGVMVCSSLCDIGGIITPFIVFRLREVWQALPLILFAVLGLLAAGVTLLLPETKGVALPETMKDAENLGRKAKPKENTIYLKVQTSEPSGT
Method: (§1) Significance was calculated using Mann–Whitney U test. n = 5–8 independent experiments.

[4] = cited from earlier work; for cmax = Imax: dose and route as in Supplemental Table 4, ref Hardman, 2018, fenoterol Tzvetkov et al; for cmax = Imax / fraction unbound: ipratropium Zhang et al, 2023; for fraction unbound: fraction unbound in plasma, ref Hardman, 2018, Lombardo et al (2018), fenoterol Tzvetkov et al; for t1/2: ref Hardman, 2018, fenoterol Tzvetkov et al
OCT1 [5] = target: T2, OCT1; experiment: DDI risk R calculated from IC50 at human OCT1; conditions: R=1+fup×Iin,max/IC50, cutoff R ≥ 1.1
human OCTN1 (hOCTN1) = target: T3, human OCTN1 (hOCTN1) (Homo sapiens, UniProt Q9H015); experiment: Uptake of the extended cocktail by HEK293 cells overexpressing hOCTN1; type: in vitro ADME; conditions: Fig. 6
T3 construct: expressed in transfected cells
T3 sequence (Q9H015 1-551): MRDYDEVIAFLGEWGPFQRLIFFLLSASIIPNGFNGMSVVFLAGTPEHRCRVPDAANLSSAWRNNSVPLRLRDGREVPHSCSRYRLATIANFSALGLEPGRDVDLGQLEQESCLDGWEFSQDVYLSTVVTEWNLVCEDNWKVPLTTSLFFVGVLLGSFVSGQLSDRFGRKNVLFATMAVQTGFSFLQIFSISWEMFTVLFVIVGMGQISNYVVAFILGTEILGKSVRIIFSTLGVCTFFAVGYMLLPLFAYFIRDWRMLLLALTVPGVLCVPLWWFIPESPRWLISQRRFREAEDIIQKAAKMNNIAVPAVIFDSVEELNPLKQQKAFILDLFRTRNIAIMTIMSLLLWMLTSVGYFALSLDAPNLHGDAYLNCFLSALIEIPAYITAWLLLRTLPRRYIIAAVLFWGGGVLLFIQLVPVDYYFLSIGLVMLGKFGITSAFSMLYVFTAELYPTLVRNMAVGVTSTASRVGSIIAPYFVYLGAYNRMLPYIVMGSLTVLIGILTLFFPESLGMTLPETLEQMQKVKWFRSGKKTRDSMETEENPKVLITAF

mOct1 = test system: mOct1; parameters: method as in ref column References of Table 2 (Morse et al, 2020; Jensen et al, 2020; Meyer et al, 2022); conditions: literature values; References of Table 2 (Morse et al, 2020; Jensen et al, 2020; Meyer et al, 2022); cited from earlier work
mouse OCT1 = target: T4, mouse OCT1 (Mus musculus, UniProt O08966); experiment: Uptake of the cocktail by HEK293 cells overexpressing mouse Oct1
T4 sequence (O08966 1-556): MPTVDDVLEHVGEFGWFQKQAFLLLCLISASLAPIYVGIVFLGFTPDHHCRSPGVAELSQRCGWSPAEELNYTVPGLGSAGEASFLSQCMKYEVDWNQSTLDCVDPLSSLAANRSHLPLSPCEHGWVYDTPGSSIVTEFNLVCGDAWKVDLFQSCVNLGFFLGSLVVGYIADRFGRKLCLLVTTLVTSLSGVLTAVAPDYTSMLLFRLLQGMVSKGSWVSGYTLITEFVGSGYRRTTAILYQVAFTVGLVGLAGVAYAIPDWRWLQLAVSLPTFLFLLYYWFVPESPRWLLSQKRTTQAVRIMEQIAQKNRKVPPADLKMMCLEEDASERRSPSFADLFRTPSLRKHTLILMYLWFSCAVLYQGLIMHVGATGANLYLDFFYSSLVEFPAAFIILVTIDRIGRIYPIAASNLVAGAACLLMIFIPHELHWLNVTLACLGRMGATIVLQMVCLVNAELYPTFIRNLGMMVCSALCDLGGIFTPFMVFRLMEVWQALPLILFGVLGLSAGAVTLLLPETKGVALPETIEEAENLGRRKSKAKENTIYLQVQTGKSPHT
Method: as §1

OCT1 [6] = conditions: read-out: inhibitory potency for metformin uptake via OCT1; substrate metformin; ref Ahlin et al, 2011; Panfen et al, 2019; cited from earlier work
[7] = substrate: CC(Cc1ccc(O)cc1)NCC(O)c1cc(O)cc(O)c1; experiment: cells, lysate or membranes named; conditions: mean ± SD, pH 7.4
[8] = substrate: O=C(O[C@H]1C[C@H]2CC[C@@H](C1)[N+]21CCCC1)C(O)(c1ccccc1)c1ccccc1; experiment: Transport kinetics (KM, vmax) of OCT1-mediated uptake, HEK293 cells overexpressing human OCT1; type: in vitro ADME; conditions: mean ± SD, pH 7.4
[9] = Iin,max=Imax+Fa×ka×D/Qh, Qh 97 L/h, Fa 1, Imax for fenoterol and ipratropium
[10] = unbound maximum inhibitor concentration at the inlet of the liver
[11] = other: hOCT1, substrate tested alone
[12] = other: hOCT1, substrate tested in cocktail

Molecule: CC(Cc1ccc(O)cc1)NCC(O)c1cc(O)cc(O)c1 (stereo not shown) [Fenoterol, fenoterol]
- increase in systemic exposure in individuals homozygous for OCT1 loss-of-function genetic variants (OCT1 [1]): 2 fold
- Km (human OCT1 (hOCT1)): 1.8 µM
- Imax, portal [2, 9]: 1.23 ng/mL
- I max, portal, u [2, 10]: 0.0021 µM
- transport by OCT1 (OCT1 [3]; extended cocktail, Fig. 6): transported only by OCT1
- cmax = Imax [4]: 1.23 ng/mL
- fraction unbound [4]: 0.53
- t1/2 [4]: 1.27 h
- DDI risk R, victim drug ipratropium (OCT1 [5]): 1.00
- DDI risk R, victim drug metformin (OCT1 [5]): 1.00
- DDI risk R, victim drug methylnaltrexone (OCT1 [5]): 1.00
- DDI risk R, victim drug salbutamol (OCT1 [5]): 1.00
- DDI risk R, victim drug sumatriptan (OCT1 [5]): 1.00
- DDI risk R, victim drug trospium (OCT1 [5]): 1.00
- DDI risk R, victim drug zolmitriptan (OCT1 [5]): 1.00

Molecule: CC(C)[N+]1(C)[C@@H]2CC[C@H]1C[C@@H](OC(=O)C(CO)c1ccccc1)C2 (stereo partly shown) [Ipratropium, ipratropium]
- Imax, portal [2, 9]: 0.08 ng/mL
- I max, portal, u [2, 10]: 0.0002 µM

Molecule: C[N+](C)(C)[C@@H](Cc1c[nH]c(=S)[nH]1)C(=O)[O-] [L-ergothioneine]
- transport by OCTN1 (human OCTN1 (hOCTN1)): transported both L-carnitine and L-ergothioneine

Molecule: C[N@+]1(CC2CC2)CC[C@]23c4c5ccc(O)c4O[C@H]2C(=O)CC[C@@]3(O)[C@H]1C5 [Methylnaltrexone, methylnaltrexone]
- Km (mOct1): 8.61 µM
- Km (human OCT1 (hOCT1)): 15.2 µM

Molecule: CC(C)(C)NCC(O)c1ccc(O)c(CO)c1 (stereo not shown) [Salbutamol, salbutamol]
- Km (mOct1): 52.2 µM
- Km (human OCT1 (hOCT1)): 310 µM
- uptake stronger in mouse than in human OCT1 (mouse OCT1; ratio mouse/human): 4.5 fold

Molecule: COc1cc(Cc2cnc(N)nc2N)cc(OC)c1OC [Trimethoprim, trimethoprim]
- I max, portal, u ([2]; human, in vivo): 8.53 µM
- Imax, portal ([2]; human, in vivo): 3932 ng/mL
- ka ([2]; human, in vivo): 1.66 h⁻¹
- k el ([2]; human, in vivo, po): 1.92e-05 s⁻¹
- cmax = Imax [4]: 1200 ng/mL
- fraction unbound [4]: 0.63
- tmax ([4]; p.o., ref Hardman, 2018): 2.00 h
- t1/2 [4]: 10.00 h

Molecule: COc1ccc(CCN(C)CCCC(C#N)(c2ccc(OC)c(OC)c2)C(C)C)cc1OC (stereo not shown) [Verapamil, verapamil]
- Imax, portal [2, 9]: 3550 ng/mL
- ka ([2]; first-order absorption rate constant, calculated manually from available pharmacokinetic parameters): 2.65 h⁻¹

Molecule: CN(C)CCc1c[nH]c2ccc(C[C@H]3COC(=O)N3)cc12 [Zolmitriptan, zolmitriptan]
- Km (human OCT1 (hOCT1)): 105 µM
- human OCT1 uptake [fold change to pcDNA5] (OCT1 [3]; cocktail, fold change to the negative control, n = 12): 6.6 fold change to pcDNA5
- mouse Oct1 uptake [fold change to pcDNA5] (mouse OCT1; fold change to the negative control, n = 12): 7.6 fold change to pcDNA5

B1: human OCT1 (hOCT1) (Homo sapiens) (protein)
chain: MPTVDDILEQVGESGWFQKQAFLILCLLSAAFAPICVGIVFLGFTPDHHCQSPGVAELSQRCGWSPAEELNYTVPGLGPAGEAFLGQCRRYEVDWNQSALSCVDPLASLATNRSHLPLGPCQDGWVYDTPGSSIVTEFNLVCADSWKLDLFQSCLNAGFLFGSLGVGYFADRFGRKLCLLGTVLVNAVSGVLMAFSPNYMSMLLFRLLQGLVSKGNWMAGYTLITEFVGSGSRRTVAIMYQMAFTVGLVALTGLAYALPHWRWLQLAVSLPTFLFLLYYWCVPESPRWLLSQKRNTEAIKIMDHIAQKNGKLPPADLKMLSLEEDVTEKLSPSFADLFRTPRLRKRTFILMYLWFTDSVLYQGLILHMGATSGNLYLDFLYSALVEIPGAFIALITIDRVGRIYPMAMSNLLAGAACLVMIFISPDLHWLNIIIMCVGRMGITIAIQMICLVNAELYPTFVRNLGVMVCSSLCDIGGIITPFIVFRLREVWQALPLILFAVLGLLAAGVTLLLPETKGVALPETMKDAENLGRKAKPKENTIYLKVQTSEPSGT
notes: expressed in transfected cells; empty vector control pcDNA5
- Km [7, 11]: 0.94 ± 0.24 µM
- Km [7, 12]: 0.95 ± 0.38 µM
- Km [8, 11]: 16.9 ± 2.46 µM
- Vmax [8, 11]: 0.000647 µmol/min/mg
- Km [8, 12]: 13.9 ± 1.61 µM
- Vmax [8, 12]: 0.000637 µmol/min/mg

— publication PMC12163485 (Drug Metabolism and Disposition, 2025)
